# In article PMC4320154, “Treatment of Methicillin-resistant Staphylococcus aureus experimental Osteomyelitis with bone-targeted Vancomycin” (SpringerPlus, 2013):
# Structures can show the parent of a compound that is named as a salt. Where two headings read alike, the source gives them in different places.
# Experiments:
# [1] = Hydroxyapatite (HA) binding assay; conditions: 50 mM Tris–HCl pH 7.4, 1% DMSO
# Procedure: 10^-5 M solutions of tetracycline, vancomycin HCl or BT2-peg2-vancomycin diacetate in 50 mM Tris–HCl buffer, pH 7.4, 1% DMSO were prepared. […] An HA slurry of 0.5 g HA/100 ml 50 mM Tris–HCl buffer, 1% DMSO was prepared. For each analyte, two samples were tested in triplicate. For one sample, 1 ml of 10^-5 M analyte and 100 μl 50 mM Tris–HCl buffer, 1% DMSO was pipetted into a microcentrifuge tube. For the second sample, 1 ml of 10^-5 M analyte and 100 μl of the HA slurry was pipetted into a microcentrifuge tube. The samples were mixed gently by inversion for five minutes and then centrifuged at 12,000 g for three minutes to sediment the HA. The supernatant was transferred to another microcentrifuge tube. An electronic spectral scan (ultraviolet–visible) from 220–520 nm was obtained for each analyte using a Varian Cary 300 Bio Scan (Agilent Technologies, Santa Clara, CA). The blank was 50 mM Tris–HCl buffer, 1% DMSO. The wavelength of maximum absorbance (λmax) was determined, and the extinction coefficient (ϵ) calculated using the Beer-Lambert law. Absorbance of the samples incubated with HA was measured at λmax, and the molar concentration of the analyte determined using the Beer-Lambert law and the previously calculated extinction coefficient. The fraction adsorbed to HA was calculated for each sample. […]
# [2] = tested on: Thirty clinical isolates of MRSA; experiment: microbe, parasite or virus in culture; format: cell-based, Staphylococcus aureus
# Procedure: (§1) Thirty clinical isolates of MRSA were studied. […] The minimum bactericidal concentration (MBC) of vancomycin HCl and BT2-peg2-vancomycin diacetate were also determined according to CLSI guidelines (Clinical and Laboratory Standards Institute [1999]).
# [3] = tested on: Thirty clinical isolates of MRSA; format: cell-based, Staphylococcus aureus; conditions: CLSI; 30 MRSA isolates
# Procedure: as §1
# [4] = tested on: MRSA IDRL-4293; format: cell-based, Staphylococcus aureus; conditions: MRSA isolate used in the experimental osteomyelitis model
# Procedure: as §1
# The experimental model described was performed in accordance with the guidelines of the Institutional Animal Care and Use Committee of the Mayo Clinic. Experimental osteomyelitis was established in 90 male Wistar rats using a modification of Zak’s model of experimental osteomyelitis (O'Reilly & Mader [1999]). […] Animals were anesthetized with ketamine and xylazine and the proximal third of the medial left tibia surgically exposed. A 0.5 mm hole was drilled into the medullary cavity. Fifty microliters of morrhuate sodium (a sclerosing agent) was injected into the cavity, followed by 50 μl sterile saline containing 10^7 colony forming units (cfu) of MRSA IDRL-4293. The muscle was reattached with coated vicryl sutures (Ethicon, Somerville, NJ). The skin was closed with tissue glue (Tissuemend, Butler Animal Health Supply, Dublin, OH) and wound clips (Harvard Apparatus, Holliston, MA). The wound was sprayed with a wound adhesive (Aluspray, Butler Animal Health Supply, Dublin, OH), along with a chewing repellent (Chewguard, Summit Hill Laboratories, Tinton Falls, NJ).
# [5] = format: in vivo, male Wistar rats
# Procedure: (§2) Four weeks after establishing infection, five rats were sacrificed, the left tibia aseptically removed and quantitative cultures performed. The remaining animals underwent surgical débridement of the infection site with sterile saline and were arbitrarily assigned to one of five study arms for a duration of 21 days: No treatment (n=17), vancomycin HCl every 12 hours (n=17, 42 doses), BT2-peg2-vancomycin diformate every 12 hours (n=17, 42 doses), BT2-peg2-vancomycin diformate every 12 hours for 3.5 days and then every fourth day thereafter (n=16, 11 doses), and BT2-peg2-vancomycin diformate once per week (n=15, 3 doses). Vancomycin HCl was administered at 50 mg/kg and BT2-peg2-vancomycin diformate at 63.85 mg/kg (equivalent to 50 mg/kg active vancomycin); both were administered intraperitoneally. Twelve hours after completion of therapy (day 50), blood was collected via cardiac puncture for hematology and chemistry studies [performed by Charles River (Wilmington, MA)], and drug concentration studies. Rats were sacrificed with CO2. The left (infected) tibia from one animal in each group was collected for histopathology with bones placed in 10% neutralized buffered formalin (NBF), decalcified, embedded in […], prepared as longitudinal cuts and stained with hematoxylin and eosin. The left (infected) tibias from the remaining animals were weighed, cryopulverized and processed for quantitative and qualitative bacterial culture. Culture results were expressed as log10 cfu/g of bone tissue.
# Kidneys from all animals were weighed, observed for abnormalities in size or color, and placed in NBF. Histological analysis was performed by Seventh Wave (Chesterfield, MO). Microscopic lesions were graded on a scale of one to four, with four being the most severe. Tubulointerstitial nephritis was characterized by multifocal non-suppurative interstitial inflammation, interstitial fibrosis, tubular epithelial degeneration, necrosis, and regeneration with frequent intra-tubular neutrophilic inflammation and cellular debris.
# [6] = Plasma concentrations in infected animals by LC/MS; format: in vivo, male Wistar rats
# Procedure: as §2
# Plasma concentrations of BT2-peg2-vancomycin in infected animals were measured by liquid chromatography/mass spectrometry (LC/MS). […] The elutes (50 μl) were diluted with 450 μl 5% ACN in 0.1% formic acid and analyzed by Accela LC System (Thermo Scientific, San Jose, CA) coupled with a LTQ-Orbitrap XL mass spectrometer (Thermo Scientific, San Jose, CA). […] Elutes from the LC column were ionized by electrospray ionization and BT2-peg2-vancomycin and teicoplanin were detected by multiple reaction monitoring. […]
# Plasma concentrations of vancomycin were measured by LC/MS. […]
# [7] = rat, in vivo, 63.85 mg/kg; cited from earlier work
# Procedure: Chemical conjugation of vancomycin to a bone-targeting moiety would theoretically yield a compound targeting delivery of vancomycin to bone, a strategy that could be useful in the treatment of bone infection. Pradama Inc. has developed a bone-targeted vancomycin, BT2-peg2-vancomycin (Figure 1) (Pierce et al. [2011]). Previous studies show concentrations of BT2-peg2-vancomycin twelve hours after a single injection (63.85 mg/kg, equivalent to 50 mg/kg vancomycin) were 27.97 and 14.18 μg/ml for plasma and bone, respectively. Concentrations of BT2-peg2-vancomycin after seven doses given every 12 h ...
# [8] = tested on: MRSA recovered from treated or untreated animals; format: cell-based, Staphylococcus aureus
# Procedure: as §1
# Ten MRSA colonies per animal recovered from quantitative bacterial cultures were tested for susceptibility to BT2-peg2-vancomycin diformate and/or vancomycin HCl.
# [9] = broth microdilution, CLSI, 30 MRSA isolates
# [10] = male, Wistar, rat, in vivo, ip, 63.85 mg/kg
smiles,measurement,setting,value
CN(C)[C@@H]1C(O)=C(C(N)=O)C(=O)[C@@]2(O)C(O)=C3C(=O)c4c(O)cccc4[C@@](C)(O)[C@H]3C[C@@H]12 [tetracycline],fraction bound to HA,"[1]; at 10^-5 M, reference analyte",approximately 50%
CN[C@H](CC(C)C)C(=O)N[C@H]1C(=O)N[C@@H](CC(N)=O)C(=O)N[C@H]2C(=O)N[C@H]3C(=O)N[C@H](C(=O)N[C@H](C(=O)O)c4cc(O)cc(O)c4-c4cc3ccc4O)[C@H](O)c3ccc(c(Cl)c3)Oc3cc2cc(c3O[C@@H]2O[C@H](CO)[C@@H](O)[C@H](O)[C@H]2O[C@H]2C[C@](C)(N)[C@H](O)[C@H](C)O2)Oc2ccc(cc2Cl)[C@H]1O [vancomycin HCl],MIC range,[2]; [9],0.5 to 2 µg/mL
same,MBC at which 50% of isolates were killed,[3],2 µg/mL
same,MBC range,[3],0.5 to 64 µg/mL
same,MBC,[4],2 µg/mL
same,MIC,[4],2 µg/mL
same,"kidney gross appearance (color, size)",[5]; every 12 hours for 21 days ip,deep maroon color and size consistent with body weight
same,kidney histology: tubulointerstitial nephritis grade,"[5]; every 12 hours for 21 days ip, lesions graded one to four, four most severe",did not exhibit microscopic abnormalities
same,"Kidney weight, median (range)","[5]; twice daily for 21 days ip, vancomycin HCl 50 mg/kg, BTV 63.85 mg/kg, no treatment 1.4",1.4 (1.1-1.7) grams
same,"BUN, median (range)","[5]; twice daily for 21 days ip, vancomycin HCl 50 mg/kg, BTV 63.85 mg/kg, normal 9–30",18.5 (15–21) mg/dl
same,"Creatinine, median (range)","[5]; twice daily for 21 days ip, vancomycin HCl 50 mg/kg, BTV 63.85 mg/kg, normal range 0.4 to 0.7",0.5 (0.4-0.6) mg/dl
same,"Albumin, median (range)","[5]; twice daily for 21 days ip, vancomycin HCl 50 mg/kg, BTV 63.85 mg/kg, normal range 3.2 to 4.5",3.4 (3.1-3.6) g/dl
CN[C@H](CC(C)C)C(=O)N[C@H]1C(=O)N[C@@H](CC(N)=O)C(=O)N[C@H]2C(=O)N[C@H]3C(=O)N[C@H](C(=O)N[C@H](C(=O)NCCOCCOCC(=O)Nc4ccc(OC)c(C(N)=O)c4O)c4cc(O)cc(O)c4-c4cc3ccc4O)[C@H](O)c3ccc(c(Cl)c3)Oc3cc2cc(c3O[C@@H]2O[C@H](CO)[C@@H](O)[C@H](O)[C@H]2O[C@H]2C[C@](C)(N)[C@H](O)[C@H](C)O2)Oc2ccc(cc2Cl)[C@H]1O [BT2-peg2-vancomycin diformate],kidney size,"[5]; rat, in vivo",~ 25.5 × 17.5 mm
same,"kidney gross appearance (color, size)","[5]; rat, in vivo, ip",lighter in color and larger
same,kidney histology: tubulointerstitial nephritis grade,"[5]; rat, in vivo, ip",4
Cc1onc(-c2ccccc2)c1C(=O)N[C@@H]1C(=O)N2[C@@H]1SC(C)(C)[C@@H]2C(=O)O [oxacillin],MIC50,"[2]; Staphylococcus aureus, broth microdilution, CLSI, 30 MRSA isolates, read-out: MIC at which 50% of the isolates were inhibited (MIC50)",> 128 µg/mL
CN[C@H](CC(C)C)C(=O)N[C@H]1C(=O)N[C@@H](CC(N)=O)C(=O)N[C@H]2C(=O)N[C@H]3C(=O)N[C@H](C(=O)N[C@H](C(=O)NCCOCCOCC(=O)Nc4ccc(OC)c(C(N)=O)c4O)c4cc(O)cc(O)c4-c4cc3ccc4O)[C@H](O)c3ccc(c(Cl)c3)Oc3cc2cc(c3O[C@@H]2O[C@H](CO)[C@@H](O)[C@H](O)[C@H]2O[C@H]2C[C@](C)(N)[C@H](O)[C@H](C)O2)Oc2ccc(cc2Cl)[C@H]1O [BT2-peg2-vancomycin],MIC at which 50% of the isolates were inhibited (MIC50),[2]; Thirty clinical isolates of,1 µg/mL
same,MIC at which 90% of the isolates were inhibited (MIC90),[2]; Thirty clinical isolates of,2 µg/mL
same,level at 12 h,[6]; [10],130000 ng/mL
same,level at 48 h,[6]; [10],880 ng/mL
same,bone concentration,[7],14.18 µg/mL
same,plasma concentration,[7],27970 ng/mL
CN[C@H](CC(C)C)C(=O)N[C@H]1C(=O)N[C@@H](CC(N)=O)C(=O)N[C@H]2C(=O)N[C@H]3C(=O)N[C@H](C(=O)N[C@H](C(=O)O)c4cc(O)cc(O)c4-c4cc3ccc4O)[C@H](O)c3ccc(c(Cl)c3)Oc3cc2cc(c3O[C@@H]2O[C@H](CO)[C@@H](O)[C@H](O)[C@H]2O[C@H]2C[C@](C)(N)[C@H](O)[C@H](C)O2)Oc2ccc(cc2Cl)[C@H]1O [vancomycin],HA binding index,"[1]; 10^-5 M analyte, HA slurry, mixed 5 min, UV–vis at λmax, triplicate, % bound/% tetracycline bound × 100",0
same,MIC at which 50% of the isolates were inhibited (MIC50),[2]; [9],1 µg/mL
same,MIC at which 90% of the isolates were inhibited (MIC90),[2]; [9],2 µg/mL
same,MBC at which 90% of isolates were killed (MBC90),[3],16 µg/mL
same,increase in MIC of recovered isolates,[8]; all treatment groups,No increase in vancomycin or BT2-peg2-vancomycin MIC of more than one doubling dilution
same,MIC of recovered MRSA,[8]; isolates from animals treated with BT2-peg2-vancomycin diformate once weekly,1 to 2 µg/mL
same,MIC of recovered MRSA,[8]; isolates from animals treated with BT2-peg2-vancomycin diformate twice daily,1 to 4 µg/mL
same,MIC of recovered MRSA,[8]; isolates from animals treated with BT2-peg2-vancomycin diformate twice daily for 3.5 days then once every fourth day,1 to 2 µg/mL
same,MIC of recovered MRSA,[8]; isolates recovered from the untreated group,1 to 2 µg/mL
same,MIC of recovered MRSA,[8]; isolates recovered from vancomycin HCl-treated animals,2 to 4 µg/mL
same,"Plasma concentration, median","[6]; 12 h after last dose, twice daily for 21 days ip, vancomycin HCl 50 mg/kg (n=16), BTV 63.85 mg/kg (n=13), LC/MS",710 ng/mL
